Activity calls are given as the source filed them. No cut-off for these calls is given here.
How the values were obtained:
U-87 MG [1] = assay: Anti-proliferative activity against human U-87 MG cells assessed as cell viability incubated for 2 hrs by CCK8 assay; assay type: functional, cell-based, U-87MG ATCC
GL261 [2] = assay: Anti-proliferative activity against mouse GL261 cells assessed as cell viability incubated for 2 hrs by CCK8 assay; assay type: functional, cell-based; settings: GL261, 2 h
[3] = Half life in C57BL6/J mouse at 5 mg/kg, iv measured upto 24 hrs by LC-MS/MS analysis; assay type: ADME, organism-based; settings: in vivo
[4] = Cmax in C57BL6/J mouse at 5 mg/kg, iv measured upto 24 hrs by LC-MS/MS analysis; assay type: ADME, organism-based; design: dose 5 mg/kg, time < 24 hrs, route iv; settings: in vivo
[5] = MRT (0 to infinity) in C57BL6/J mouse at 5 mg/kg, iv measured upto 24 hrs by LC-MS/MS analysis; assay type: ADME, organism-based; settings: in vivo
[6] = Volume of distribution at steady state in C57BL6/J mouse at 5 mg/kg, iv measured upto 24 hrs by LC-MS/MS analysis; assay type: ADME, organism-based; settings: in vivo, read-out: Vdss
[7] = Apparent volume of distribution in C57BL6/J mouse at 5 mg/kg, iv measured upto 24 hrs by LC-MS/MS analysis; assay type: ADME, organism-based; settings: in vivo, read-out: Vz
[8] = Half life in C57BL6/J mouse at 5 mg/kg, ip measured upto 24 hrs by LC-MS/MS analysis; assay type: ADME, organism-based; settings: in vivo
[9] = Tmax in C57BL6/J mouse at 5 mg/kg, ip measured upto 24 hrs by LC-MS/MS analysis; assay type: ADME, organism-based; settings: in vivo
[10] = Cmax in C57BL6/J mouse at 5 mg/kg, ip measured upto 24 hrs by LC-MS/MS analysis; assay type: ADME, organism-based; design: time < 24 hrs, dose 5 mg/kg, route ip; settings: in vivo
[11] = AUC (0 to infinity) in C57BL6/J mouse at 5 mg/kg, ip measured upto 24 hrs by LC-MS/MS analysis; assay type: ADME, organism-based; design: time < 24 hrs, dose 5 mg/kg, route ip; settings: in vivo
[12] = MRT (0 to 8hrs) in C57BL6/J mouse at 5 mg/kg, ip measured upto 24 hrs by LC-MS/MS analysis; assay type: ADME, organism-based; settings: in vivo
[13] = Drug uptake in C57BL6/J mouse brain at 20 mg/kg, ip measured after 2 hrs by LC-MS/MS analysis; assay type: ADME, organism-based; settings: in vivo
Mus musculus = assay: Anti glioblastoma activity against mouse GL261-mNeonGreenLuc cells stereotaxically injected in corpus striatum of orthotopic glioblastoma mouse model assessed as increase in survival rate at 5 mg/kg, ip once daily measured on day 21; assay type: functional, organism-based
GL261 [14] = assay: Anti glioblastoma activity against mouse GL261-mNeonGreenLuc cells stereotaxically injected in corpus striatum of orthotopic glioblastoma mouse model assessed as inhibition of tumor growth at 5 mg/kg, ip once daily measured on day 21 by immunofluorescence imaging analysis; assay type: functional, organism-based
GL261 [15] = assay: Anti glioblastoma activity against mouse GL261-mNeonGreenLuc cells stereotaxically injected in corpus striatum of orthotopic glioblastoma mouse model assessed as shrunken tumor tissue at 5 mg/kg, ip once daily measured on day 21 by H and E staining analysis; assay type: functional, organism-based
GL261 [16] = assay: Anti-glioblastoma activity against mouse GL261-mNeonGreenLuc cells stereotaxically injected in corpus striatum of orthotopic glioblastoma mouse model assessed as decrease in Ki67 expression in GFP-labeled glioblastoma tissue at 5 mg/kg, ip once daily measured on day 21 by confocal microscopy; assay type: functional, organism-based
[17] = target: ALK tyrosine kinase receptor (Mus musculus) (UniProt P97793); assay: Binding affinity to ALK in mouse GL261 cell lysate assessed as immunoprecipitation measured after overnight incubation by pull-down assay; assay type: subcellular
ALK tyrosine kinase receptor (Mus musculus), sequence (P97793 whole entry): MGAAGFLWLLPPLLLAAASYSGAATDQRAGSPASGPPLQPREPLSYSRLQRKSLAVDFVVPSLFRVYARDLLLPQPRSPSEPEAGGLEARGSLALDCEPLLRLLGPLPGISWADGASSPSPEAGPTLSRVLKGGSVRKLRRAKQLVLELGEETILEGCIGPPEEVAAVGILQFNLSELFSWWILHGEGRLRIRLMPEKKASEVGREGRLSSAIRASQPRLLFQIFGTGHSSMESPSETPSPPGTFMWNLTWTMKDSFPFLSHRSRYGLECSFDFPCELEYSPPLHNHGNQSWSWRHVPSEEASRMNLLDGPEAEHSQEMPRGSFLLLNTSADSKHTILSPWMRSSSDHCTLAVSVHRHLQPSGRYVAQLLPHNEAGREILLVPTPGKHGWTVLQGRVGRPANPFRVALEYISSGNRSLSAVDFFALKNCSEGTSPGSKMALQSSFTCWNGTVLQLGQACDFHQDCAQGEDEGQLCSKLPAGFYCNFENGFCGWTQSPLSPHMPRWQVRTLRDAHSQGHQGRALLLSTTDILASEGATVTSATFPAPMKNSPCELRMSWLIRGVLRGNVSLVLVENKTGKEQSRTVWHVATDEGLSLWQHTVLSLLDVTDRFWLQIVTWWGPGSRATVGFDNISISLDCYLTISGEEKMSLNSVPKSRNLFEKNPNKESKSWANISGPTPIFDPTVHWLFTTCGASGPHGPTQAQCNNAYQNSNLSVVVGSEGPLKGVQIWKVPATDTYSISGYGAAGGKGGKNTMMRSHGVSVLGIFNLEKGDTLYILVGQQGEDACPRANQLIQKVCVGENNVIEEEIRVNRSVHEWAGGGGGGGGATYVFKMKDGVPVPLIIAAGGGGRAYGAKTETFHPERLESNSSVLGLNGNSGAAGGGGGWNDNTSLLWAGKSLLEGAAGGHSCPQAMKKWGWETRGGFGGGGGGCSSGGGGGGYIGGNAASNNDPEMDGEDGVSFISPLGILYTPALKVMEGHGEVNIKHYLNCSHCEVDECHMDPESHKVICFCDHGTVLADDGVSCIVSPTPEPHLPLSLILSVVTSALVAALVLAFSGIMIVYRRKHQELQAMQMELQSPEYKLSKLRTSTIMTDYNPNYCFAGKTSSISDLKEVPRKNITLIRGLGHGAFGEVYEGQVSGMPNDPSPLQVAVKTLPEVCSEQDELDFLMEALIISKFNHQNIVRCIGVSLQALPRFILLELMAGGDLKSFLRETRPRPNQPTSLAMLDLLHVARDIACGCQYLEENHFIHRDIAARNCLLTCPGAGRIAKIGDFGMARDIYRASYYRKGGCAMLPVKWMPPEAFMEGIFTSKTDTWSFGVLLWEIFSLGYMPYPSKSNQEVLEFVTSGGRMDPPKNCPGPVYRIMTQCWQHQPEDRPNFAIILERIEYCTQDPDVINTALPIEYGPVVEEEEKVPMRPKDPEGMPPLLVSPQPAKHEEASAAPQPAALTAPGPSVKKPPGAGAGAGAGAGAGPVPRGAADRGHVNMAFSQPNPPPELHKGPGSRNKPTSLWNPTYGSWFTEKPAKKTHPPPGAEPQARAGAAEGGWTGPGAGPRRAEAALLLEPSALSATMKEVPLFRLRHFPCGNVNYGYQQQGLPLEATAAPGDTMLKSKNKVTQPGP

[18] = target: T1, ALK tyrosine kinase receptor (Homo sapiens, UniProt Q9UM73); assay: Inhibition of human ALK using GF-IRtide as substrate by Kinase-Glo Plus luminescence kinase assay
Target sequence in this assay (Q9UM73 whole entry): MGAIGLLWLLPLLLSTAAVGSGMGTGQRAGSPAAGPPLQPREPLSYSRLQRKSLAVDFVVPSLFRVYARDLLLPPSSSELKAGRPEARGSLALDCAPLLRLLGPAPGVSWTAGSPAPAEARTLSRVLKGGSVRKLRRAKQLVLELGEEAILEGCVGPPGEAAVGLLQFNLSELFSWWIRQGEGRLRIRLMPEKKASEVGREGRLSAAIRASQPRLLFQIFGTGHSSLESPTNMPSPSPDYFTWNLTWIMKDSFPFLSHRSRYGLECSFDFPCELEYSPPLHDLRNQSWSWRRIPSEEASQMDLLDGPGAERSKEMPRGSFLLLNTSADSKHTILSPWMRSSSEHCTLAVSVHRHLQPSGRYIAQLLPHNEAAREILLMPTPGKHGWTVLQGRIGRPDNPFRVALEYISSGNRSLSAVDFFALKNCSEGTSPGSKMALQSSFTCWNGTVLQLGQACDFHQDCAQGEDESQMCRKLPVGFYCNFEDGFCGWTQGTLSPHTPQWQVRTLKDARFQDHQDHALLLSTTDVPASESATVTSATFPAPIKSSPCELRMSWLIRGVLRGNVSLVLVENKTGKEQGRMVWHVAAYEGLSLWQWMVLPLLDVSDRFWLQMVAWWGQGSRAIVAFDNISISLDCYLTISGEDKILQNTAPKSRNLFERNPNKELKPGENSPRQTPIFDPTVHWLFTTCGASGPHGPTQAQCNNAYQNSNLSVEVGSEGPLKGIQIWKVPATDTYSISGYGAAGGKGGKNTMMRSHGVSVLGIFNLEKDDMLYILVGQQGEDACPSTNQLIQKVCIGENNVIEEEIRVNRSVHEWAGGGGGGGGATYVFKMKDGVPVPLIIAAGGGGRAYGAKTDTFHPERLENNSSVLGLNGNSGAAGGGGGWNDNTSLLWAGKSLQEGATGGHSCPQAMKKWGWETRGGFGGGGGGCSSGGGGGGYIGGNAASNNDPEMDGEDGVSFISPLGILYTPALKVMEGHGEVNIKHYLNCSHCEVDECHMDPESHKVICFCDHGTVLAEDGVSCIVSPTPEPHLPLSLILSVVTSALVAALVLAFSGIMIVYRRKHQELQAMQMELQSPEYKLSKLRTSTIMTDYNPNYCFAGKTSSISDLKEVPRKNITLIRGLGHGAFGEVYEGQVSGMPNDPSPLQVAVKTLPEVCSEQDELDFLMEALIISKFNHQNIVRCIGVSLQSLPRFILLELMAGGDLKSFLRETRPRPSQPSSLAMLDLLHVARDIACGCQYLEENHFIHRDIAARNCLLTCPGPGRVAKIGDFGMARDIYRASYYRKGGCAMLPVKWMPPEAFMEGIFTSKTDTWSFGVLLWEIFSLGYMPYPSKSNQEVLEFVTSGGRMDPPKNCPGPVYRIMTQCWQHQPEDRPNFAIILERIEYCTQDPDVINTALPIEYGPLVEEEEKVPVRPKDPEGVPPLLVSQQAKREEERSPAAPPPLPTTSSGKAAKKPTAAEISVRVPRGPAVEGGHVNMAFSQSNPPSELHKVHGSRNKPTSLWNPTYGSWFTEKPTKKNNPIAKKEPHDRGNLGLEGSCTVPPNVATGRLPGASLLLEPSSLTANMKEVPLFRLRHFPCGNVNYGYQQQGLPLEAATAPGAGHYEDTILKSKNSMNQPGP

U-87 MG [19] = assay: Anti-proliferative activity against human U-87 MG cells assessed as decrease in cell viability incubated for 24 to 72 hrs by CCK8 assay; assay type: functional, cell-based; settings: U-87MG ATCC, dose 0.5-10 µM, time 24-72 hrs
HeLa = assay: Anti-proliferative activity against human HeLa cells assessed as inhibition rate at 160 uM incubated for 24 to 72 hrs by CCK8 assay relative to control; assay type: functional; settings: time 24-72 hrs
GL261 [20] = assay: Induction of autophagy in mouse GL261 cells assessed as decrease in mTOR phosphorylation at 0.5 to 2 uM incubated for 24 hrs by Western blot analysis; assay type: functional, cell-based; settings: dose 0.5-2 µM
GL261 [21] = assay: Induction of autophagy in mouse GL261 cells transfected with mRFP-GFPLC3 adenovirus assessed as yellow fluorescence at 2 uM incubated for 48 hrs by confocal microscopy; assay type: functional, cell-based
GL261 [22] = assay: Induction of autophagy in mouse GL261 cells transfected with mRFP-GFPLC3 adenovirus assessed as yellow fluorescence pretreated with CQ for 30 mins followed by treated at 2 uM measured after 48 hrs by confocal microscopy; assay type: functional, cell-based
GL261 [23] = assay: In vivo induction of autophagy in mouse GL261 cells transfected with mRFP-GFPLC3 adenovirus allografted in C57BL/6J mouse model assessed as LC3 puncta in tumor tissue at 2.5 to 5 mg/kg, ip by immunofluorescence assay; assay type: functional, organism-based; settings: dose 2.5-5 mg/kg
GL261 [24] = assay: Induction of autophagy in mouse GL261 cells assessed as cell viability pretreated with 5 uM CQ for 4 hrs followed by treated at 0.5 to 2 uM measured after 48 hrs by CCK8 assay; assay type: functional, cell-based
GL261 [25] = assay: Induction of apoptosis in mouse GL261 cells assessed as increase in annexin-V+/PI- cells at 0.5 to 2 uM by flow cytometry; assay type: functional, cell-based; settings: dose 0.5-2 µM, time 24-72 hrs, TDE = time-dependent effect
GL261 [26] = assay: Induction of apoptosis in mouse GL261 cells assessed as increase in annexin-V+/PI- cells incubated for 24 to 72 hrs by flow cytometry; assay type: functional, cell-based; settings: dose 0.5-2 µM, time 24-72 hrs
GL261 [27] = assay: Induction of mitochondrial membrane potential loss in mouse GL261 cells at 0.5 to 2 uM incubated for 24 hrs by JC-1 staining based flow cytometry assay; assay type: functional, cell-based; settings: dose 0.5-2 µM
GL261 [28] = assay: Induction of apoptosis in mouse GL261 cells assessed as increase in cleaved PARP level measured at 0.5 to 2 uM after 24 hrs by Western blot analysis; assay type: functional, cell-based; settings: dose 0.5-2 µM
GL261 [29] = assay: In vivo induction of apoptosis in mouse GL261 cells transfected with mRFP-GFPLC3 adenovirus allografted in C57BL/6J mouse model assessed as increase in cleaved PARP level in tumor tissue at 2.5 to 5 mg/kg, ip by immunofluorescence assay; assay type: functional, organism-based; settings: dose 2.5-5 mg/kg
GL261 [30] = assay: In vivo induction of apoptosis in mouse GL261 cells transfected with mRFP-GFPLC3 adenovirus allografted in C57BL/6J mouse model assessed as increase in cleaved caspase 3 level in tumor tissue at 2.5 to 5 mg/kg, ip by immunofluorescence assay; assay type: functional, organism-based; settings: dose 2.5-5 mg/kg
GL261 [31] = assay: Induction of cell cycle arrest in mouse GL261 cells assessed as accumulation of cells at S phase at 0.5 to 2 uM incubated for 24 to 72 hrs by flow cytometry; assay type: functional; settings: dose 0.5-2 µM, time 24-72 hrs
[32] = target: T1, ALK tyrosine kinase receptor; settings: U-87 MG, dose 0.5-2 µM, time 24.0 hrs
Target sequence in this assay (Q9UM73 19-1620 limits assumed): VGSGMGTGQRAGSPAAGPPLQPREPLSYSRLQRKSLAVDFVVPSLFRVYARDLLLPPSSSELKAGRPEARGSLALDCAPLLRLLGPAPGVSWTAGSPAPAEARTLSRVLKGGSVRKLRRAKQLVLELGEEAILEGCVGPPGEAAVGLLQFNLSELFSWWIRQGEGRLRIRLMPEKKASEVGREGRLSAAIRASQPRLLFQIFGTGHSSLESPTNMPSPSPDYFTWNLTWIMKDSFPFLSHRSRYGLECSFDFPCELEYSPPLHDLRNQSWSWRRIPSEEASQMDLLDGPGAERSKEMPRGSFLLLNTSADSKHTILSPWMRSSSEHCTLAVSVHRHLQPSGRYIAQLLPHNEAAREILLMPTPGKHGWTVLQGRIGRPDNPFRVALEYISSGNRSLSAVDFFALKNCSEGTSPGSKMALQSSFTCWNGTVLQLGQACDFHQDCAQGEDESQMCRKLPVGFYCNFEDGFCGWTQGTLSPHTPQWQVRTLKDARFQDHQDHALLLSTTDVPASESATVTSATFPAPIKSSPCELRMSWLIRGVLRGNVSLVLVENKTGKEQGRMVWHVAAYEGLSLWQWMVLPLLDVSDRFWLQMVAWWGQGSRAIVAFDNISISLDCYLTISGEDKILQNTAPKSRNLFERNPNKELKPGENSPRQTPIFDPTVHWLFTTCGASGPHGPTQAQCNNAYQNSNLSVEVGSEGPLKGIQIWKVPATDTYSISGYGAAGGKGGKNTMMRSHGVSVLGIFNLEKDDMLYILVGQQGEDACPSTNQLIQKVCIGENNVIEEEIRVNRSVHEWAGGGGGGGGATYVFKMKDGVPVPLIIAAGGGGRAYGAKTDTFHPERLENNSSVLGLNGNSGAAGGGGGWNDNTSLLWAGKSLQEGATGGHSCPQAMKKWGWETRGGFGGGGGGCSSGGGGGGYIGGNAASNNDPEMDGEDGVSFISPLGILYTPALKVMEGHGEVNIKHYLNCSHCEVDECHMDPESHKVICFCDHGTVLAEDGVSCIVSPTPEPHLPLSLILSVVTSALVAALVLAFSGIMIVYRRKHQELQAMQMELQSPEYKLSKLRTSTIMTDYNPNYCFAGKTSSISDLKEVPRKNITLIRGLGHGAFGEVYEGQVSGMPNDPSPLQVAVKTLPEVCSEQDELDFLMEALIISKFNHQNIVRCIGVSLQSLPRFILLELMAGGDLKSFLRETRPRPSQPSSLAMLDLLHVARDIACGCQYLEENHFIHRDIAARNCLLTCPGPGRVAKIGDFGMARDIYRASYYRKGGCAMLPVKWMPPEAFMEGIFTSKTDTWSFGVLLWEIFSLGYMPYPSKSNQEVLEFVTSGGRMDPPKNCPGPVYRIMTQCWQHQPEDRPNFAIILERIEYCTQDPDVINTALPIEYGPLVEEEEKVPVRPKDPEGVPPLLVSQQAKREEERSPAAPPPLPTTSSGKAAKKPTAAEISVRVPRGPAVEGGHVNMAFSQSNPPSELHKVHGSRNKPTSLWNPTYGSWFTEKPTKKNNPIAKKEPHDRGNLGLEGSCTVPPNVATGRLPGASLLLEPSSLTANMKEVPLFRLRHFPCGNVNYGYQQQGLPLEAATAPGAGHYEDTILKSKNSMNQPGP

[33] = target: T1, ALK tyrosine kinase receptor; settings: U-87 MG, dose 0.5-2 µM, time 24.0 hrs; remark: listed apart in the source
Target sequence in this assay (Q9UM73 19-1620 limits assumed): as above

Cc1ccc(S(=O)(=O)n2cc(Cc3cc(C)c(O)c(C)c3)c3ccccc32)cc1
IC50 (U-87 MG [1]): 7.25 µM
IC50 (GL261 [2]): 1.35 µM
half-life [3]: 1.13 h
Cmax [4]: 1980 ng/mL
MRT inf [5]: 0.84 h
Vd [6]: 4.59 L/kg
Vd [7]: 8.89 L/kg
half-life [8]: 3.55 h
Tmax [9]: 0.58 h
Cmax [10]: 118 ng/mL
AUC(0-inf) [11]: 420 ng·h/mL
MRT last at 24 h [12]: 2.25 h
Drug uptake [13]: 2.7 µmol/kg
Activity (Mus musculus): Active
inhibition (GL261 [14]): Active
Activity (GL261 [15]): Active
Activity (GL261 [16]): Active
Activity [17]: Active
IC50 [18]: 7 µM
Activity (U-87 MG [19]): Dose-Dependent Effect
inhibition at 160 µM (HeLa): 50%
Activity (GL261 [20]): Active
Activity (GL261 [21]): Active
Activity (GL261 [22]): inactive
Activity (GL261 [23]): Active
Activity (GL261 [24]): inactive
Activity (GL261 [25]): Tde
Activity (GL261 [26]): Dose-Dependent Effect
Activity (GL261 [27]): Active
Activity (GL261 [28]): Active
Activity (GL261 [29]): Active
Activity (GL261 [30]): Active
Activity (GL261 [31]): 24.5%
inhibition [32]: Active
inhibition [33]: Active
